Source: PubChem BioAssay (NCI)
Where “and” joins values, the source holds several entries; their conditions need not be identical. Equal entries are not always repeated.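 Results reflect a 48-hour exposure of cells in 96-well plates to compound at five concentrations. Abbreviation: GI50, concentration required for 50% inhibition of growth. TGI is the concentration that stops growth completely.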

Experiments:
Experiment in all cases: NCI anticancer screen, dose series, 48 h
CCRF-CEM leukemia = test system: CCRF-CEM leukemia
K-562 leukemia = test system: K-562 leukemia
MALME-3M melanoma = test system: MALME-3M melanoma
NCI-H23 lung = test system: NCI-H23 lung
RXF 393 renal = test system: RXF 393 renal
SN12C renal = test system: SN12C renal
SR leukemia = test system: SR leukemia
SW-620 colon = test system: SW-620 colon
U251 CNS = test system: U251 CNS
MDA-MB-231 breast = test system: MDA-MB-231 breast

SMILES	TGI (CCRF-CEM leukemia)	TGI (K-562 leukemia)	TGI (MALME-3M melanoma)	TGI (NCI-H23 lung)	TGI (RXF 393 renal)	TGI (SN12C renal)	TGI (SR leukemia)	TGI (SW-620 colon)	TGI (U251 CNS)	GI50 (CCRF-CEM leukemia)	GI50 (K-562 leukemia)	GI50 (MALME-3M melanoma)	GI50 (NCI-H23 lung)	GI50 (RXF 393 renal)	GI50 (SN12C renal)	GI50 (SR leukemia)	GI50 (SW-620 colon)	GI50 (U251 CNS)	GI50 (MDA-MB-231 breast)	TGI (MDA-MB-231 breast)
O=C1C2C3CC(C4C5C=CC(C5)C34)C2C2C3CC(C12)C1C2C=CC(C2)C31 (stereo not drawn)	> 100 µM	> 100 µM	> 100 µM	> 100 µM	> 100 µM	> 100 µM	> 100 µM	49.5 µM	> 100 µM	–	–	–	–	–	–	–	–	–	–	–
COc1ccc(OC)c(/C=N/N=C(\N)NO)c1	> 100 µM	> 100 µM	> 100 µM	> 100 µM	> 100 µM	> 100 µM	> 100 µM	> 100 µM	> 100 µM	–	–	–	–	–	–	–	–	–	–	–
O=[N+]([O-])c1cc([N+](=O)[O-])c(Nn2c3ccccc3c3ccccc32)c([N+](=O)[O-])c1	> 100 µM	> 100 µM	4.88 µM and 0.733 µM	4.55 µM and 3.96 µM	1.24 µM	9.42 µM and 6.72 µM	> 100 µM	23.7 µM and 3.56 µM	> 100 µM	0.355 µM	0.297 µM	0.236 µM	0.313 µM	0.272 µM	0.322 µM	0.232 µM	0.366 µM	0.358 µM	–	–
Cc1cccc(C)c1N1C(=O)C(=O)C(c2nc3ccccc3s2)/C(=N\N)C1=O (stereo not drawn)	–	> 100 µM	> 100 µM	> 100 µM	–	> 100 µM	–	> 100 µM	> 100 µM	–	–	–	–	–	–	–	–	–	–	–
CNS(=O)(=O)NNS(=O)(=O)c1ccc(OC)cc1	> 100 µM	> 100 µM	> 100 µM	> 100 µM	> 100 µM	–	> 100 µM	> 100 µM	> 100 µM	–	–	–	–	–	–	–	–	–	–	–
COc1cc(/C=N/N=C(\N)NO)c(Cl)cc1O	> 100 µM	> 100 µM	> 100 µM	> 100 µM	> 100 µM	> 100 µM	–	> 100 µM	> 100 µM	–	–	–	–	–	–	–	–	–	–	–
CC(=O)[CH-]C(=O)c1ccccc1.CC(=O)[CH-]C(=O)c1ccccc1.CC(=O)[CH-]C(=O)c1ccccc1.[Nd+3].[OH3+]	> 100 µM	> 100 µM	94.4 µM	> 100 µM	–	> 100 µM	–	> 100 µM	> 100 µM	9.7 µM	42.6 µM	27.2 µM	37.8 µM	–	42.3 µM	–	55.2 µM	37 µM	–	–
CCCCCCCCCC[C@H](O)[C@H](O)CC[C@@H](O)[C@H]1CC[C@@H]([C@H]2CC[C@H](CCCCCCC[C@@H](O)CC3=C[C@H](C)OC3=O)O2)O1	–	–	48.3 µM	–	83 µM	74.8 µM	–	> 100 µM	> 100 µM	–	–	–	0.951 µM	42.5 µM	25.3 µM	–	47.2 µM	–	19.4 µM	7.79 µM and 69.2 µM
NC1=NN(c2ccccc2)C(=O)C1C(=O)C(=O)Nc1ccc(Cl)c(Cl)c1 (stereo not drawn)	> 100 µM	> 100 µM	> 100 µM	> 100 µM	> 100 µM	> 100 µM	> 100 µM	> 100 µM	> 100 µM	–	–	–	–	–	–	–	–	–	–	–
CN(/N=C\c1ccnc2ccccc12)c1ccc([N+](=O)[O-])cc1	82.5 µM	> 100 µM	> 100 µM	> 100 µM	–	> 100 µM	–	> 100 µM	> 100 µM	–	–	–	–	–	–	–	–	–	–	–
COc1c(-c2ccccc2)nc2ccc(Oc3ccccc3)nn12	99.3 µM	> 100 µM	> 92.6 µM	> 96.5 µM	> 73.6 µM	> 100 µM	> 100 µM	> 100 µM	> 100 µM	–	–	–	–	–	–	–	–	–	–	–
O=C(Nc1ccc(Cl)c(Cl)c1)C(=O)C(C(=O)c1ccccc1-c1ccccc1)C1OC(=O)c2ccccc21 (stereo not drawn)	84.9 µM	> 100 µM	–	24.6 µM	21.5 µM	–	–	42.7 µM	23 µM	–	–	–	–	–	–	–	–	–	–	–
COC(=O)[C@@H]1Cc2c([nH]c3ccccc23)[C@H](c2ccccc2)N1	> 100 µM	> 100 µM	> 100 µM	> 100 µM	–	81.5 µM	> 100 µM	> 100 µM	> 100 µM	–	–	–	–	–	–	–	–	–	–	–
Nc1c(Cl)ncnc1NCCCCCCCCCCCCNc1ncnc(Cl)c1N	–	> 100 µM	> 100 µM	2.41 µM	8.01 µM	39.6 µM	5.16 µM	54 µM	4.64 µM	–	–	–	–	–	–	–	–	–	–	–
COC1(OC)C2(Cl)C(Cl)=C(Cl)C1(Cl)C1C2C2CC1(C(=O)O)c1ccccc12 (stereo not drawn)	27 µM	43.2 µM	32.1 µM	28.4 µM	–	40.9 µM	42.2 µM	54.3 µM	35.5 µM	–	–	–	–	–	–	–	–	–	–	–
C=CCC(N[C@H](CO)c1ccccc1)c1cn(Cc2ccccc2Cl)c(=O)n(Cc2ccccc2Cl)c1=O (stereo partly drawn)	42.5 µM	40.7 µM	81 µM	62.1 µM	23.6 µM	40.9 µM	–	> 100 µM	34 µM	10.6 µM	6.78 µM	34.5 µM	19.5 µM	8.48 µM	14.6 µM	–	24.3 µM	11.2 µM	3.74 µM	21.5 µM
COC1OC2COC(C)(C)OC2C(OC(C)=O)C1NC(=O)N(CCCl)N=O (stereo not drawn)	> 100 µM	> 100 µM	> 100 µM	> 100 µM	> 100 µM	> 100 µM	–	> 100 µM	> 100 µM	–	–	–	–	–	–	–	–	–	–	–
O=C1c2ccccc2C2CCC1c1ccccc12 (stereo not drawn)	> 100 µM	> 100 µM	51.8 µM	65 µM	78 µM	> 100 µM	58.2 µM	> 100 µM	> 100 µM	–	–	–	–	–	–	–	–	–	–	–
O=C(Nc1ccc(Cl)cc1Cl)OC(Cn1cncn1)c1ccc(Cl)cc1Cl (stereo not drawn)	> 100 µM	> 100 µM	29.3 µM	28.4 µM	30.9 µM	30.7 µM	> 100 µM	30.4 µM	29.7 µM	–	–	–	–	–	–	–	–	–	–	–
O=C(/C=C\c1cccc2ccccc12)c1ccc(Cl)cc1Cl	42.1 µM	38.6 µM	65.6 µM	> 100 µM	–	> 100 µM	–	34.2 µM	30.7 µM	–	–	–	–	–	–	–	–	–	–	–
N#CC(C(=O)/C(=N\NC(N)=O)C(C#N)c1ccccc1)c1ccccc1 (stereo not drawn)	> 100 µM	> 100 µM	> 100 µM	> 100 µM	> 100 µM	> 100 µM	> 100 µM	> 100 µM	> 100 µM	–	–	–	–	–	–	–	–	–	–	–
